The values below come from patent publication US12668594B2, “TYK2 inhibitors and uses thereof” (Sudo Biosciences Limited, priority 2020, dated 2026).

As a reminder, the IC50 is the midpoint of a concentration-inhibition curve.

The target in experiment [1] is T1, TYK2 (Homo sapiens, UniProt P29597). Description: HEK-Blue IL-23 reporter assay (SEAP) for TYK2 pseudokinase inhibition. Set-up: HEK-Blue™ IL-23 and IFNα/β cells with a stably-integrated cytokine receptor and STAT3 or STAT1; host or cells: HEK-Blue IL-23 / HEK-Blue IFNα/β cells (HEK293 background). It is filed as cell-based. The following applies: HEK-Blue IL-23 cells, 10 ng/mL human recombinant IL-23, SEAP reporter; read-out: IL23 IC50. As to the method:
(§1) HEK-Blue™ IL-23 and IFNα/β cells with a stably-integrated cytokine receptor and STAT3 or STAT1 express STAT-inducible secreted embryonic alkaline phosphatase (SEAP) reporter gene upon cytokine stimulation. These cells are plated in DMVEM (Gibco) containing 10% heat-inactivated FBS (Gibco) and 100 U/mL PenStrep (Gibco) at 37° C. under […] conditions for 20-22 hours. The cells are then pretreated with serially diluted test compounds for 60 min prior to stimulation with either 10 ng/mL human recombinant IL-23 (Miltenyl Biotech) or 1 ng/mL human recombinant IFNα (InvivoGen) for 22-24 hours for IL-23 or 16-18 h for IFNα. SEAP induction is measured using the QUANTI Blue™ Solution (InvivoGen) according to the manufacturer's instructions. Inhibition data are calculated by comparison to no inhibitor control wells for 000 inhibition and non-stimulated control wells for 10000 inhibition. Dose response curves are generated to determine the concentration required to inhibit 5000 of cellular response (IC50) as derived by non-linear regression analysis.
(A reporter such as luciferase makes a cellular process visible.)

The target of experiment [2] is T1, TYK2. Description: HEK-Blue IFNα/β reporter assay (SEAP) for TYK2 pseudokinase inhibition. It is filed as cell-based. As to conditions: HEK-Blue IFNα/β cells, 1 ng/mL human recombinant IFNα. The protocol: as §1

T1 sequence (P29597 whole entry): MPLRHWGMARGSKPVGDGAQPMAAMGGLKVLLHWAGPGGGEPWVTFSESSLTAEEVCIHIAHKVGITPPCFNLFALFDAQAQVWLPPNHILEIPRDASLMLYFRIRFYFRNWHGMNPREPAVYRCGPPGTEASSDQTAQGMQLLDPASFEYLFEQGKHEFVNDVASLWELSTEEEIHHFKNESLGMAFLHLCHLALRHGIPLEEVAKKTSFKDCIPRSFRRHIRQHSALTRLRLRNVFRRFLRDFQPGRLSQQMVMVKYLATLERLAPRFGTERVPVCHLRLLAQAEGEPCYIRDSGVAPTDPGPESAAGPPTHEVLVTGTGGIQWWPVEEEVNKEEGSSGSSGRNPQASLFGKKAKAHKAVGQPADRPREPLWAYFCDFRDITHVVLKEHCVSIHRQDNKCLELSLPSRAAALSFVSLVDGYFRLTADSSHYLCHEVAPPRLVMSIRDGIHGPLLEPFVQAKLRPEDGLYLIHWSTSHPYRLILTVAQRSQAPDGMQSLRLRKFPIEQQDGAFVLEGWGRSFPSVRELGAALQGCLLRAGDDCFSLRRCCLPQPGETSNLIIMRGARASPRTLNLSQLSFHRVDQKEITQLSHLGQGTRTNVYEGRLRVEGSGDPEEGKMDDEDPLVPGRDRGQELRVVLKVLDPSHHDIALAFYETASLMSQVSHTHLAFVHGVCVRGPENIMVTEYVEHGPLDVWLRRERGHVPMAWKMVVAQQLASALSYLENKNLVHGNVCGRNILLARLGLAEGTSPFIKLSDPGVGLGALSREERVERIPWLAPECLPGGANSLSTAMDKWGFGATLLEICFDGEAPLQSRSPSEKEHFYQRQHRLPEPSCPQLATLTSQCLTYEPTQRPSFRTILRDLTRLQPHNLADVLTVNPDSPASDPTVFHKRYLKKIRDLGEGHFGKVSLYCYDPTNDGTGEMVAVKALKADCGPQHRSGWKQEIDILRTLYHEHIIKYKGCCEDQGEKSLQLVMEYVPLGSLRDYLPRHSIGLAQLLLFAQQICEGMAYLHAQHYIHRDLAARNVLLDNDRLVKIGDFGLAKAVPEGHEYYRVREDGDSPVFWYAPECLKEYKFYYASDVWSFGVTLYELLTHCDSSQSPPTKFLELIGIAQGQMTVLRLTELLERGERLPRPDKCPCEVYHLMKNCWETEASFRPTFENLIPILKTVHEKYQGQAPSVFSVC

As to `COc1cccc(-n2[nH]c(=O)c3cnc(Nc4cccnn4)cc32)c1` [Compound I-52, 1-(3-methoxyphenyl)-6-(pyridazin-3-ylamino)-1,2-dihydro-3H-pyrazolo[4,3-c]pyridin-3-one], the IC50 in experiment [1] and in experiment [2] was below 10 µM in each case.
Take `COc1cc(-n2[nH]c(=O)c3cnc(Nc4cc(C)nc(C)n4)cc32)ccn1` [Compound I-83, 6-((2,6-dimethylpyrimidin-4-yl)amino)-1-(2-methoxypyridin-4-yl)-1,2-dihydro-3H-pyrazolo[4,3-c]pyridin-3-one]: the IC50 in experiment [1] and in experiment [2] was below 10 µM in each case.
With `Cc1ccccc1-n1[nH]c(=O)c2cnc(NC(=O)C3CC3)cc21` [Compound I-107, N-(3-oxo-1-(o-tolyl)-2,3-dihydro-1H-pyrazolo[4,3-c]pyridin-6-yl)cyclopropanecarboxamide], the IC50 in experiment [1] and in experiment [2] was below 10 µM each time.
As for `CS(=O)(=O)c1ccccc1-n1[nH]c(=O)c2cnc(Nc3ccc(F)cn3)cc21` [Compound I-26, 6-((5-fluoropyridin-2-yl)amino)-1-(2-(methylsulfonyl)phenyl)-1,2-dihydro-3H-pyrazolo[4,3-c]pyridin-3-one], the IC50 in experiment [1] and in experiment [2] was below 10 µM in each case.
Regarding `COc1cccc(-n2[nH]c(=O)c3cnc(Nc4cnccn4)cc32)c1` [Compound I-53, 1-(3-methoxyphenyl)-6-(pyrazin-2-ylamino)-1,2-dihydro-3H-pyrazolo[4,3-c]pyridin-3-one], the IC50 in experiment [1] and in experiment [2] was below 10 µM each time.
`N#Cc1ccc(-n2[nH]c(=O)c3cnc(NC(=O)C4CC4)cc32)cc1C(F)(F)F` [Compound I-93, N-(1-(4-cyano-3-(trifluoromethyl)phenyl)-3-oxo-2,3-dihydro-1H-pyrazolo[4,3-c]pyridin-6-yl)cyclopropanecarboxamide]: the IC50 in experiment [1] and in experiment [2] was below 10 µM in each case.
As for `COc1cccc(-n2[nH]c(=O)c3cnc(Nc4cc(OC)ncn4)cc32)c1` [Compound I-46, 1-(3-methoxyphenyl)-6-((6-methoxypyrimidin-4-yl)amino)-1,2-dihydro-3H-pyrazolo[4,3-c]pyridin-3-one], the figures for the IC50 in experiment [1] and in experiment [2] were below 10 µM and above 90 µM, respectively.
As to `Cc1cc(Nc2cc3c(cn2)c(=O)[nH]n3-c2ccc(S(C)(=O)=O)cc2)nc(C)n1` [Compound I-32, 6-((2,6-dimethylpyrimidin-4-yl)amino)-1-(4-(methylsulfonyl)phenyl)-1,2-dihydro-3H-pyrazolo[4,3-c]pyridin-3-one], the IC50 is 10 to 30 µM in experiment [1] and above 90 µM in experiment [2].
Taken in the same sequence, the figures for `COc1cccc(-n2[nH]c(=O)c3cnc(Nc4ccc(F)cn4)cc32)n1` [Compound I-36, 6-((5-fluoropyridin-2-yl)amino)-1-(6-methoxypyridin-2-yl)-1,2-dihydro-3H-pyrazolo[4,3-c]pyridin-3-one] were below 10 µM and below 10 µM.
For `O=c1[nH]n(-c2cccc(OC(F)(F)F)c2)c2cc(Nc3ccc(F)cn3)ncc12` [Compound I-56, 6-((5-fluoropyridin-2-yl)amino)-1-(3-(trifluoromethoxy)phenyl)-1,2-dihydro-3H-pyrazolo[4,3-c]pyridin-3-one] the same measures were below 10 µM and 10 to 30 µM.
On to `O=c1[nH]n(-c2ccc(OC(F)(F)F)cc2)c2cc(Nc3ccc(F)cn3)ncc12` [Compound I-70, 6-((5-fluoropyridin-2-yl)amino)-1-(4-(trifluoromethoxy)phenyl)-1,2-dihydro-3H-pyrazolo[4,3-c]pyridin-3-one], for which the IC50 in experiment [1] and in experiment [2] was below 10 µM throughout.
With `Cc1cc(Nc2cc3c(cn2)c(=O)[nH]n3-c2ccc(C#N)c(Cl)c2)nc(C)n1` [Compound I-87, 2-chloro-4-(6-((2,6-dimethylpyrimidin-4-yl)amino)-3-oxo-2,3-dihydro-1H-pyrazolo[4,3-c]pyridin-1-yl)benzonitrile], the half-maximal inhibitory concentration (IC50) in experiment [1] is below 10 µM; in experiment [2] it was above 90 µM.
Taken in the same sequence, the figures for `COc1cccc(-n2[nH]c(=O)c3cnc(Nc4cc(C)nc(C)n4)cc32)n1` [Compound I-33, 6-((2,6-dimethylpyrimidin-4-yl)amino)-1-(6-methoxypyridin-2-yl)-1,2-dihydro-3H1-pyrazolo[4,3-c]pyridin-3-one] were below 10 µM and below 10 µM.
Taken in the same sequence, the figures for `O=C(Nc1cc2c(cn1)c(=O)[nH]n2-c1ccc(C(F)(F)F)cc1)C1CC1` [Compound I-68, N-(3-oxo-1-(4-(trifluoromethyl)phenyl)-2,3-dihydro-1H-pyrazolo[4,3-c]pyridin-6-yl)cyclopropanecarboxamide] were below 10 µM and below 10 µM.
Taken in the same sequence, the figures for `Cc1cc(Nc2cc3c(cn2)c(=O)[nH]n3-c2ccccc2)ncc1F` [Compound I-6, 6-((5-fluoro-4-methylpyridin-2-yl)amino)-1-phenyl-1,2-dihydro-3H-pyrazolo[4,3-c]pyridin-3-one] were below 10 µM and below 10 µM.
On to `O=C(Nc1cc2c(cn1)c(=O)[nH]n2-c1ccc(OC(F)(F)F)cc1)C1CC1` [Compound I-71, N-(3-oxo-1-(4-(trifluoromethoxy)phenyl)-2,3-dihydro-1H-pyrazolo[4,3-c]pyridin-6-yl)cyclopropanecarboxamide], for which the IC50 in experiment [1] and in experiment [2] was below 10 µM each time.
Turning to `COc1cccc(-n2[nH]c(=O)c3cnc(Nc4cc(C)ncn4)cc32)c1` [Compound I-47, 1-(3-methoxyphenyl)-6-((6-methylpyrimidin-4-yl)amino)-1,2-dihydro-3H-pyrazolo[4,3-c]pyridin-3-one], the figures for the IC50 in experiment [1] and in experiment [2] were above 90 µM and below 10 µM, respectively.
Regarding `Cc1nc(Nc2cc3c(cn2)c(=O)[nH]n3-c2ccccc2)cc(OC(C)C)n1` [Compound I-8, 6-((6-isopropoxy-2-methylpyrimidin-4-yl)amino)-1-phenyl-1,2-dihydro-3H-pyrazolo[4,3-c]pyridin-3-one], the IC50 in experiment [1] is below 10 µM; in experiment [2], 10 to 30 µM.
For `Cc1cc(Nc2cc3c(cn2)c(=O)[nH]n3-c2ccccc2C)nc(C)n1` [Compound I-105, 6-((2,6-dimethylpyrimidin-4-yl)amino)-1-(o-tolyl)-1,2-dihydro-3H-pyrazolo[4,3-c]pyridin-3-one] the same measures were below 10 µM and below 10 µM.
Taken in the same sequence, the figures for `COc1cccc(-n2[nH]c(=O)c3cnc(NC(=O)C4CC4)cc32)c1` [Compound I-54, N-(1-(3-methoxyphenyl)-3-oxo-2,3-dihydro-1H-pyrazolo[4,3-c]pyridin-6-yl)cyclopropanecarboxamide] were below 10 µM and below 10 µM.
Taken in the same sequence, the figures for `Cc1ccccc1-n1[nH]c(=O)c2cnc(Nc3ccc(F)cn3)cc21` [Compound I-106, 6-((5-fluoropyridin-2-yl)amino)-1-(0-tolyl)-1,2-dihydro-3H-pyrazolo[4,3-c]pyridin-3-one] were below 10 µM and 30 to 90 µM.
Regarding `COc1cccc(-n2[nH]c(=O)c3c(N)nc(Nc4cc(C)nc(C)n4)cc32)c1` [Compound I-116, 4-amino-6-((2,6-dimethylpyrimidin-4-yl)amino)-1-(3-methoxyphenyl)-1,2-dihydro-3H-pyrazolo[4,3-c]pyridin-3-one], the IC50 in experiment [1] was below 10 µM; in experiment [2], 30 to 90 µM.
For `Cc1cc(Nc2cc3c(cn2)c(=O)[nH]n3C2CCCC2)nc(C)n1` [Compound I-114, 1-cyclopentyl-6-((2,6-dimethylpyrimidin-4-yl)amino)-1,2-dihydro-3H-pyrazolo[4,3-c]pyridin-3-one] the same measures were below 10 µM and below 10 µM.
Regarding `COc1cccc(-n2[nH]c(=O)c3cnc(Nc4ccccn4)cc32)c1` [Compound I-50, 1-(3-methoxyphenyl)-6-(pyridin-2-ylamino)-1,2-dihydro-3H-pyrazolo[4,3-c]pyridin-3-one], the IC50 in experiment [1] and in experiment [2] was below 10 µM each time.
As for `COc1ccccc1-n1[nH]c(=O)c2cnc(NC(=O)C3CC3)cc21` [Compound I-15, N-(1-(2-methoxyphenyl)-3-oxo-2,3-dihydro-1H-pyrazolo[4,3-c]pyridin-6-yl)cyclopropanecarboxamide], the IC50 in experiment [1] is 10 to 30 µM; in experiment [2], 30 to 90 µM.
Taken in the same sequence, the figures for `Cc1cc(Nc2cc3c(cn2)c(=O)[nH]n3-c2ccc(C#N)c(C(F)(F)F)c2)nc(C)n1` [Compound I-91, 4-(6-((2,6-dimethylpyrimidin-4-yl)amino)-3-oxo-2,3-dihydro-1H-pyrazolo[4,3-c]pyridin-1-yl)-2-(trifluoromethyl)benzonitrile] were below 10 µM and below 10 µM.
Taken in the same sequence, the figures for `Cc1cc(Nc2cc3c(cn2)c(=O)[nH]n3-c2cccc(C#N)c2)nc(C)n1` [Compound I-18, 3-(6-((2,6-dimethylpyrimidin-4-yl)amino)-3-oxo-2,3-dihydro-1H-pyrazolo[4,3-c]pyridin-1-yl)benzonitrile] were below 10 µM and 10 to 30 µM.
